Test results from patent US8426447B2, “Spiro-tricyclic ring compounds as beta-secretase modulators and methods of use” (Amgen Inc., priority 2008, dated 2013).
Each block holds one compound with its values, some of them ahead of it.

Tests used:
[1] = biological target: T1, BACE1 (Homo sapiens, UniProt P56817); assay: In Vitro Enzymatic BACE FRET (Fluorescence Resonance Energy Transfer) Assay; type: biochemical; details: read-out: BACE1 FRET assay
Procedure, shortened: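 Buffer: 0.05 M acetate, pH 4.2, 10% DMSO final, 100 uM genapol. Start: FRET substrate 50 nM. Incubation 1 h. Stop: Tris to neutral pH. Read: fluorescence.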

[2] = biological target: T1, BACE1; assay: In Vitro BACE Cell-based Assay (HEK cell assay): Aβ40 in conditioned medium of cells stably expressing Amyloid Precursor Protein, sandwich ELISA; details: read-out: HEK cell assay
Procedure, shortened: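 Conditioned medium Aβ40 by ELISA: pAb40 capture 3 h 4° C., biotin-6E10 detection 2 h 4° C., Streptavidin-Europium TRF. IC50 fitted from % control.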

T1 sequence (P56817 46-501, species assumed): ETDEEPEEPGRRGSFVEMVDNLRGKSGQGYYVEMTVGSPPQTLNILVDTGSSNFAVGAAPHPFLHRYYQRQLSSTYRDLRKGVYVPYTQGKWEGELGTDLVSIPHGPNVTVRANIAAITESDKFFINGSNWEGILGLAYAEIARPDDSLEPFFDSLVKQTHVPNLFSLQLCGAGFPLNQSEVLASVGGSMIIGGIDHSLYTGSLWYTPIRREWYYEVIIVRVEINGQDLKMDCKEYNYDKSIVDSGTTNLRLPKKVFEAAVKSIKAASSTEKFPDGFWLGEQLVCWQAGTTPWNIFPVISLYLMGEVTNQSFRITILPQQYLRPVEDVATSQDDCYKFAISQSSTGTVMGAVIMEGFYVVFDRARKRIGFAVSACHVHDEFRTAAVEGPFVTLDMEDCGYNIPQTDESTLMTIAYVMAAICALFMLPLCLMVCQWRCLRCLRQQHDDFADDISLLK

Structure (SMILES): CC(C)(F)COc1cnc2c(c1)[C@]1(COC(N)=N1)c1cc(-c3cccnc3F)ccc1O2 [compound 449]
IC50 [1]: < 0.1 µM
IC50 ([2]; HEK cells): < 0.1 µM

Structure (SMILES): CC(C)(C)COc1cnc2c(c1)[C@]1(COC(N)=N1)c1cc(-c3ccccc3)ccc1O2 [compound 469]
IC50 [1]: < 0.1 µM
IC50 ([2]; HEK cells): 0.1 to 1 µM

Structure (SMILES): CC(=O)c1ccccc1-c1ccc2c(c1)[C@]1(COC(N)=N1)c1cc(OCC(C)(C)C)ccc1O2 [compound 190]
IC50 ([1]; Table III, IC50's in uM ranges): 0.1 to 1 µM
IC50 ([2]; Table III, IC50's in uM ranges): > 5 µM

Structure (SMILES): COc1ccc2c(c1)C1(COC(N)=N1)c1cc(-c3cc(Cl)c(C)cc3F)ccc1O2 (stereo not shown) [Example 23, 2′-(5-chloro-2-fluoro-4-methylphenyl)-7′-methoxyspiro[1,3-oxazole-4,9′-xanthen]-2-amine]
IC50 ([1]; Table 1): 1 to 5 µM
IC50 ([2]; Table 1, Aβ40, 24 h incubation): > 5 µM

Structure (SMILES): COC(C)(C)C#Cc1ccc2c(c1)[C@@]1(COC(N)=N1)c1cc(-c3cccnc3)cnc1O2 [208a]
IC50 ([1]; Table III, IC50's in uM ranges): 0.1 to 1 µM
IC50 ([2]; Table III, IC50's in uM ranges): 0.1 to 1 µM

Structure (SMILES): NC1=NC2(CO1)c1cc(-c3cncnc3)ccc1Oc1ccc(-c3cncnc3)cc12 [compound 137]
IC50 ([1]; Table III, IC50's in uM ranges): < 0.1 µM
IC50 ([2]; Table III, IC50's in uM ranges): 0.1 to 1 µM

Structure (SMILES): NC1=N[C@@]2(CO1)c1cc(-c3cc(Cl)ccc3F)ccc1Oc1ncc(N3CCOCC3)cc12 [compound 457]
IC50 [1]: < 0.1 µM
IC50 ([2]; HEK cells): < 0.1 µM

Structure (SMILES): NC1=N[C@@]2(CO1)c1cc(-c3cccnc3)ccc1Oc1ccc(N3CCOC4(CC4)C3)cc12 [compound 419]
IC50 [1]: < 0.1 µM
IC50 ([2]; HEK cells): < 0.1 µM

Structure (SMILES): COC(C)(C)CCc1ccc2c(c1)C1(COC(N)=N1)c1cc(-c3cccnc3)cnc1O2 (racemic) [Example 110, rac-7-(3-methoxy-3-methylbutyl)-3-(3-pyridinyl)spiro[chromeno[2,3-b]pyridine-5,4′-[1,3]oxazol]-2′-amine]
IC50 ([1]; Table III, IC50's in uM ranges): < 0.1 µM
IC50 ([2]; Table III, IC50's in uM ranges): 0.1 to 1 µM

Structure (SMILES): CC1(COc2ccc3c(c2)[C@]2(COC(N)=N2)c2cc(-c4cncnc4)cnc2O3)COC1 [compound 166]
IC50 ([1]; Table III, IC50's in uM ranges): < 0.1 µM
IC50 ([2]; Table III, IC50's in uM ranges): 0.1 to 1 µM

Structure (SMILES): C[Si](C)(C)C#Cc1cnc2c(c1)[C@]1(COC(N)=N1)c1cc(-c3cccnc3)ccc1O2 [compound 348]
IC50 ([1]; in vitro BACE FRET enzyme assay, IC50 class symbols): < 0.1 µM
IC50 ([2]; HEK cell-based assay, Aβ40 in conditioned medium, IC50 class symbols): < 0.1 µM

Structure (SMILES): CN(C)CC#Cc1ccc2c(c1)[C@@]1(COC(N)=N1)c1cc(-c3cncnc3)ccc1O2 [117b]
IC50 ([1]; Table III, IC50's in uM ranges): 1 to 5 µM
IC50 ([2]; Table III, IC50's in uM ranges): 0.1 to 1 µM

More lines, now with the values ahead:

IC50 ([1]; Table IV, class symbols): 0.1 to 1 µM
IC50 ([2]; Table IV, class symbols): < 0.1 µM
Structure (SMILES): Cn1cnc(-c2ccc3c(c2)[C@]2(COC(N)=N2)c2cc(-c4cccnc4)ccc2O3)c1 [compound 554]

IC50 [1]: < 0.1 µM
IC50 [2]: < 0.1 µM
Structure (SMILES): CC(C)C#Cc1cnc2c(c1)[C@]1(COC(N)=N1)c1cc(-c3cncnc3)ccc1O2 [compound 743]

IC50 [1]: < 0.1 µM
IC50 ([2]; HEK cells): < 0.1 µM
Structure (SMILES): NC1=N[C@]2(CO1)c1cc(C3=CCOCC3)ccc1Oc1cnc(-c3cccnc3F)cc12 [compound 497]

IC50 [1]: 0.1 to 1 µM
IC50 [2]: 1 to 5 µM
Structure (SMILES): CC(C)(C)COc1ccc2c(c1)[C@@]1(COC(N)=N1)c1ccccc1O2 [compound 665]

IC50 ([1]; Table IV, class symbols): < 0.1 µM
IC50 ([2]; Table IV, class symbols): 0.1 to 1 µM
Structure (SMILES): NC1=N[C@@]2(CO1)c1cc(-c3cncnc3)ccc1Oc1ccc(-c3cccc(O)c3)cc12 [compound 891]

IC50 [1]: < 0.1 µM
IC50 [2]: 0.1 to 1 µM
Structure (SMILES): Cc1csc(-c2ccc3c(c2)[C@]2(COC(N)=N2)c2cc(-c4cccnc4)ccc2O3)c1 [compound 726]

IC50 ([1]; Table IV, class symbols): < 0.1 µM
IC50 ([2]; Table IV, class symbols): < 0.1 µM
Structure (SMILES): Cn1cc(-c2ccc3c(c2)[C@]2(COC(N)=N2)c2cc(-c4ccc(F)nc4)ccc2O3)cn1 [compound 631]

IC50 [1]: < 0.1 µM
IC50 ([2]; HEK cells): < 0.1 µM
Structure (SMILES): C[C@@H]1CN(c2cc(F)c3c(c2)[C@]2(COC(N)=N2)c2cc(-c4cccnc4)ccc2O3)C[C@H](C)O1 [compound 483]

IC50 ([1]; Table IV, class symbols): < 0.1 µM
IC50 ([2]; Table IV, class symbols): 0.1 to 1 µM
Structure (SMILES): COc1ccc2c(c1)[C@]1(COC(N)=N1)c1cc(NC(=O)c3ccc(Cl)cn3)ccc1O2 [compound 652, N-((4S)-2-amino-7′-methoxyspiro[1,3-oxazole-4,9′-xanthen]-2′-yl)-5-chloro-2-pyridinecarboxamide]

IC50 ([1]; Table IV, class symbols): < 0.1 µM
IC50 ([2]; Table IV, class symbols): < 0.1 µM
Structure (SMILES): CC(C)(C)C#Cc1cnc2c(c1)[C@]1(COC(N)=N1)c1cc(-c3cnccn3)ccc1O2 [compound 654]

IC50 ([1]; Table IV, class symbols): 0.1 to 1 µM
IC50 ([2]; Table IV, class symbols): > 5 µM
Structure (SMILES): CC(C)(C)COc1ccc2c(c1)[C@]1(COC(N)=N1)c1cc(-c3cccnc3C(F)(F)F)ccc1O2 [compound 911]

IC50 [1]: 0.1 to 1 µM
IC50 [2]: 1 to 5 µM
Structure (SMILES): CC(C)(C)C#Cc1ccc2c(c1)C1(COC(N)=N1)c1cc(C#CC(C)(C)C)ccc1O2 [compound 930]

IC50 [1]: < 0.1 µM
IC50 [2]: < 0.1 µM
Structure (SMILES): CC(C)(O)COc1ccc2c(c1Br)[C@]1(COC(N)=N1)c1cc(-c3cccnc3)ccc1O2 [compound 944]

IC50 ([1]; Table IV, class symbols): 1 to 5 µM
IC50 ([2]; Table IV, class symbols): 1 to 5 µM
Structure (SMILES): CC(=O)c1cc(-c2ccc3c(c2)[C@@]2(COC(N)=N2)c2cc(OCC(C)(C)C)ccc2O3)cs1 [compound 836]
